# Reference: patent US12377104B1, “Methods for treating a fatty liver disease” (Madrigal Pharmaceuticals, Inc., priority 2024, dated 2025)
# Tested on: adults with biopsy-confirmed NASH
# Assay: MAESTRO-NASH: adverse events, serious adverse events, malignancies
# Conditions: for Adverse event: Abdominal distension / Adverse event: Abdominal pain / Adverse event: Abdominal pain upper / Adverse event: Constipation / Adverse event: Cough / Adverse event: Decreased appetite / Adverse event: Dizziness / Adverse event: Gastrooesophageal reflux disease / Adverse event: Headache / Adverse event: Hypertension / Adverse event: Muscle spasms / Adverse event: Nasopharyngitis / Adverse event: Pain in extremity / Adverse event: Procedural pain / Adverse event: Rash / Adverse event: Sinusitis / Adverse event: Type 2 diabetes / Adverse event: Upper respiratory tract infection / Adverse event: Vomiting: safety population
# Text: Safety end points included adverse events, biochemical assessments, and clinical assessments. Selected serious adverse events (including deaths, cardiovascular events, and potential drug-induced liver injury) were adjudicated by independent, external event-adjudication committees whose members were unaware of the trial-group assignments.
smiles,measurement,setting,value
"CC(C)c1cc(Oc2c(Cl)cc(-n3nc(C#N)c(=O)[nH]c3=O)cc2Cl)n[nH]c1=O [Resmetirom, 2-(3,5-dichloro-4-((5-isopropyl-6-oxo-1,6-dihydropyridazin-3-yl)oxy)phenyl)-3,5-dioxo-2,3,4,5-tetrahydro-1,2,4-triazine-6-carbonitrile]","Adverse event leading to trial discontinuation before wk 52, number of patients",80 mg,6
same,"Adverse event leading to trial discontinuation during entire treatment period, number of patients",80 mg,9
same,"Adverse event leading to trial discontinuation during entire treatment period, percent of patients",80 mg,(2.8) percent
same,"Arthralgia, number of patients",80 mg,48
same,"Arthralgia, percent of patients",80 mg,(14.9) percent
same,"Back pain, number of patients",80 mg,35
same,"Back pain, percent of patients",80 mg,(10.9) percent
same,"Cancer reported, patients",80 mg,1.2%
same,"Covid-19, number of patients",80 mg,69
same,"Covid-19, percent of patients",80 mg,(21.4) percent
same,"Diarrhea, number of patients",80 mg,87
same,"Diarrhea, percent of patients",80 mg,(27.0) percent
same,"Fatal adverse event, number of patients",80 mg,1
same,"Fatal adverse event, percent of patients",80 mg,(0.3) percent
same,"Fatigue, number of patients",80 mg,33
same,"Fatigue, percent of patients",80 mg,(10.2) percent
same,"Grade 1: mild, number of patients",80 mg,73
same,"Grade 1: mild, percent of patients",80 mg,(22.7) percent
same,"Grade 2: moderate, number of patients",80 mg,180
same,"Grade 2: moderate, percent of patients",80 mg,(55.9) percent
same,"Grade 3 or higher: severe, number of patients",80 mg,43
same,"Grade 3 or higher: severe, percent of patients",80 mg,(13.4) percent
same,"Major adverse cardiovascular event, number of patients",80 mg,1
same,"Major adverse cardiovascular event, percent of patients",80 mg,(0.3) percent
same,"Nausea, number of patients",80 mg,71
same,"Nausea, percent of patients",80 mg,(22.0) percent
same,"Other cardiovascular event, number of patients",80 mg,0
same,"Pruritus, number of patients",80 mg,26
same,"Pruritus, percent of patients",80 mg,(8.1) percent
same,"Urinary tract infection, number of patients",80 mg,33
same,"Urinary tract infection, percent of patients",80 mg,(10.2) percent
same,"≥1 Adverse event attributed to resmetirom, number of patients",80 mg,124
same,"≥1 Adverse event attributed to resmetirom, percent of patients",80 mg,(38.5) percent
same,"≥1 Adverse event, number of patients",80 mg,296
same,"≥1 Adverse event, percent of patients",80 mg,(91.9) percent
same,"≥1 Serious adverse event attributed to resmetirom, number of patients",80 mg,2
same,"≥1 Serious adverse event attributed to resmetirom, percent of patients",80 mg,(0.6) percent
same,"≥1 Serious adverse event, number of patients",80 mg,35
same,Malignancy: Basal cell carcinoma,80 mg (N = 322),2 (0.6) n (%)
same,Malignancy: Breast carcinoma,80 mg (N = 322),1 (0.3) n (%)
same,Malignancy: Malignant melanoma,80 mg (N = 322),0 n (%)
same,Malignancy: Skin cancer (squamous cell),80 mg (N = 322),1 (0.3) n (%)
same,Patients with any malignancy,80 mg (N = 322),4 (1.2) n (%)
same,Patients with at least one TE-SAEs,80 mg (N = 322),35 (10.9) n (%)
same,SAE: Acute Gallstone-related disorders,80 mg (N = 322),3 (0.9) n (%)
same,SAE: COVID-19,80 mg (N = 322),1 (0.3) n (%)
same,SAE: COVID-19 pneumonia,80 mg (N = 322),2 (0.6) n (%)
same,SAE: Cardiac disorders,80 mg (N = 322),3 (0.9) n (%)
same,SAE: Gastrointestinal disorders,80 mg (N = 322),3 (0.9) n (%)
same,SAE: General disorders and administration site conditions,80 mg (N = 322),2 (0.6) n (%)
same,SAE: Infections and infestations,80 mg (N = 322),12 (3.7) n (%)
same,"SAE: Injury, poisoning and procedural complications",80 mg (N = 322),3 (0.9) n (%)
same,SAE: Musculoskeletal and connective tissue disorders,80 mg (N = 322),7 (2.2) n (%)
same,SAE: Nervous system disorders,80 mg (N = 322),3 (0.9) n (%)
same,SAE: Post procedural haemorrhage,80 mg (N = 322),1 (0.3) n (%)
same,"SAE: Respiratory, thoracic and mediastinal disorders",80 mg (N = 322),3 (0.9) n (%)
same,Adverse event: Abdominal distension,80 mg (n = 322),14 (4.3) no. (%)
same,Adverse event: Abdominal pain,80 mg (n = 322),23 (7.1) no. (%)
same,Adverse event: Abdominal pain upper,80 mg (n = 322),23 (7.1) no. (%)
same,Adverse event: Constipation,80 mg (n = 322),21 (6.5) no. (%)
same,Adverse event: Cough,80 mg (n = 322),14 (4.3) no. (%)
same,Adverse event: Decreased appetite,80 mg (n = 322),5 (1.6) no. (%)
same,Adverse event: Dizziness,80 mg (n = 322),20 (6.2) no. (%)
same,Adverse event: Gastrooesophageal reflux disease,80 mg (n = 322),16 (5.0) no. (%)
same,Adverse event: Headache,80 mg (n = 322),30 (9.3) no. (%)
same,Adverse event: Hypertension,80 mg (n = 322),16 (5.0) no. (%)
same,Adverse event: Muscle spasms,80 mg (n = 322),14 (4.3) no. (%)
same,Adverse event: Nasopharyngitis,80 mg (n = 322),14 (4.3) no. (%)
same,Adverse event: Pain in extremity,80 mg (n = 322),12 (3.7) no. (%)
same,Adverse event: Procedural pain,80 mg (n = 322),16 (5.0) no. (%)
same,Adverse event: Rash,80 mg (n = 322),12 (3.7) no. (%)
same,Adverse event: Sinusitis,80 mg (n = 322),10 (3.1) no. (%)
same,Adverse event: Type 2 diabetes,80 mg (n = 322),24 (7.5) no. (%)
same,Adverse event: Upper respiratory tract infection,80 mg (n = 322),23 (7.1) no. (%)
same,Adverse event: Vomiting,80 mg (n = 322),28 (8.7) no. (%)
same,"Adverse event leading to trial discontinuation before wk 52, number of patients",100 mg,22
same,"Adverse event leading to trial discontinuation during entire treatment period, number of patients",100 mg,25
same,"Adverse event leading to trial discontinuation during entire treatment period, percent of patients",100 mg,(7.7) percent
same,"Arthralgia, number of patients",100 mg,35
same,"Arthralgia, percent of patients",100 mg,(10.8) percent
same,"Back pain, number of patients",100 mg,27
same,"Back pain, percent of patients",100 mg,(8.4) percent
same,"Cancer reported, patients",100 mg,3.4%
same,"Covid-19, number of patients",100 mg,54
same,"Covid-19, percent of patients",100 mg,(16.7) percent
same,"Diarrhea, number of patients",100 mg,108
same,"Diarrhea, percent of patients",100 mg,(33.4) percent
same,"Fatal adverse event, number of patients",100 mg,2
same,"Fatal adverse event, percent of patients",100 mg,(0.6) percent
same,"Fatigue, number of patients",100 mg,26
same,"Fatigue, percent of patients",100 mg,(8.0) percent
same,"Grade 1: mild, number of patients",100 mg,66
same,"Grade 1: mild, percent of patients",100 mg,(20.4) percent
same,"Grade 2: moderate, number of patients",100 mg,183
same,"Grade 2: moderate, percent of patients",100 mg,(56.7) percent
same,"Grade 3 or higher: severe, number of patients",100 mg,47
same,"Grade 3 or higher: severe, percent of patients",100 mg,(14.6) percent
same,"Major adverse cardiovascular event, number of patients",100 mg,1
same,"Major adverse cardiovascular event, percent of patients",100 mg,(0.3) percent
same,"Nausea, number of patients",100 mg,61
same,"Nausea, percent of patients",100 mg,(18.9) percent
same,"Other cardiovascular event, number of patients",100 mg,1
same,"Other cardiovascular event, percent of patients",100 mg,(0.3) percent
same,"Pruritus, number of patients",100 mg,37
same,"Pruritus, percent of patients",100 mg,(11.5) percent
same,"Urinary tract infection, number of patients",100 mg,27
same,"Urinary tract infection, percent of patients",100 mg,(8.4) percent
same,"≥1 Adverse event attributed to resmetirom, number of patients",100 mg,134
same,"≥1 Adverse event attributed to resmetirom, percent of patients",100 mg,(41.5) percent
same,"≥1 Adverse event, number of patients",100 mg,296
same,"≥1 Adverse event, percent of patients",100 mg,(91.6) percent
same,"≥1 Serious adverse event attributed to resmetirom, number of patients",100 mg,0
same,"≥1 Serious adverse event, number of patients",100 mg,41
same,Malignancy: Basal cell carcinoma,100 mg (N = 323),3 (0.9) n (%)
same,Malignancy: Breast carcinoma,100 mg (N = 323),2 (0.6) n (%)
same,Malignancy: Malignant melanoma,100 mg (N = 323),1 (0.3) n (%)
same,Malignancy: Skin cancer (squamous cell),100 mg (N = 323),1 (0.3) n (%)
same,Patients with any malignancy,100 mg (N = 323),11 (3.4) n (%)
same,Patients with at least one TE-SAEs,100 mg (N = 323),41 (12.7) n (%)
same,SAE: Acute Gallstone-related disorders,100 mg (N = 323),3 (0.9) n (%)
same,SAE: COVID-19,100 mg (N = 323),1 (0.3) n (%)
same,SAE: COVID-19 pneumonia,100 mg (N = 323),0 n (%)
same,SAE: Cardiac disorders,100 mg (N = 323),3 (0.9) n (%)
same,SAE: Gastrointestinal disorders,100 mg (N = 323),7 (2.2) n (%)
same,SAE: General disorders and administration site conditions,100 mg (N = 323),5 (1.5) n (%)
same,SAE: Infections and infestations,100 mg (N = 323),5 (1.5) n (%)
same,"SAE: Injury, poisoning and procedural complications",100 mg (N = 323),8 (2.5) n (%)
same,SAE: Musculoskeletal and connective tissue disorders,100 mg (N = 323),1 (0.3) n (%)
same,SAE: Nervous system disorders,100 mg (N = 323),2 (0.6) n (%)
same,SAE: Post procedural haemorrhage,100 mg (N = 323),1 (0.3) n (%)
same,"SAE: Respiratory, thoracic and mediastinal disorders",100 mg (N = 323),4 (1.2) n (%)
same,Adverse event: Abdominal distension,100 mg (n = 323),13 (4.0) no. (%)
same,Adverse event: Abdominal pain,100 mg (n = 323),29 (9.0) no. (%)
same,Adverse event: Abdominal pain upper,100 mg (n = 323),27 (8.4) no. (%)
same,Adverse event: Constipation,100 mg (n = 323),28 (8.7) no. (%)
same,Adverse event: Cough,100 mg (n = 323),18 (5.6) no. (%)
same,Adverse event: Decreased appetite,100 mg (n = 323),16 (5.0) no. (%)
same,Adverse event: Dizziness,100 mg (n = 323),19 (5.9) no. (%)
same,Adverse event: Gastrooesophageal reflux disease,100 mg (n = 323),7 (2.2) no. (%)
same,Adverse event: Headache,100 mg (n = 323),25 (7.7) no. (%)
same,Adverse event: Hypertension,100 mg (n = 323),13 (4.0) no. (%)
same,Adverse event: Muscle spasms,100 mg (n = 323),22 (6.8) no. (%)
same,Adverse event: Nasopharyngitis,100 mg (n = 323),20 (6.2) no. (%)
same,Adverse event: Pain in extremity,100 mg (n = 323),12 (3.7) no. (%)
same,Adverse event: Procedural pain,100 mg (n = 323),9 (2.8) no. (%)
same,Adverse event: Rash,100 mg (n = 323),21 (6.5) no. (%)
same,Adverse event: Sinusitis,100 mg (n = 323),13 (4.0) no. (%)
same,Adverse event: Type 2 diabetes,100 mg (n = 323),26 (8.0) no. (%)
same,Adverse event: Upper respiratory tract infection,100 mg (n = 323),8 (2.5) no. (%)
same,Adverse event: Vomiting,100 mg (n = 323),35 (10.8) no. (%)
same,drug-induced liver injury,in vivo,no incidence of drug-induced liver injury
same,severe diarrhea,in vivo,no episodes of severe diarrhea
same,median duration of diarrhea,independent of dose,15 to 20 days
